Key:
[1] = test system: HIV-2 ROD; assay: MT-4/MTT-assay, protection against virus-induced cytopathic effect; type: cell-based; conditions: Human immunodeficiency virus 2, MT4, 120 h; MT-4 cells, MTT, 5 days after infection
[2] = test system: HIV-2 ROD; assay: GFP-assay in Jurkat A72 (LTR-GFP) cells; type: cell-based; conditions: Human immunodeficiency virus 2, 72 h, 3 days after infection
[3] = test system: HIV-1 IIIB; assay: Anti-HIV activity in CEM cells (cytopathogenicity); type: cell-based; conditions: Human immunodeficiency virus 1, IIIB, CCRF-CEM
[4] = test system: NL4.3/AMD3100R; assay: microbe, parasite or virus in culture; type: cell-based, HIV-1; conditions: Human immunodeficiency virus 1, Jurkat, 72 h, read-out: EC50 NL4.3/AMD3100R
[5] = Cytotoxicity in mock-infected MT-4 cells (MTT); type: cell-based; conditions: human, mock-infected MT-4 cells
[6] = test system: HIV-1 NL4.3 capture by Raji/DC-SIGN cells; assay: HIV capture by Raji/DC-SIGN cells (procedure A), p24 ELISA; conditions: HIV pretreated 1 h with compound, then Raji/DC-SIGN cells; p24 of washed cell pellet
Experimental: After 60 minutes of pre-incubation with the Raji/DC-SIGN cells, unabsorbed virus and test compound were carefully removed by repeated washing steps, and the amount of captured virus was determined by measurement of the virus-associated p24 content on the Raji/DC-SIGN cell surface. The α(1-3)/(1-6)-mannose-specific plant lectin HHA was included as a positive control for inhibition of virus capture by Raji/DC-SIGN cells.
Then, 0.5 ml exponentially growing Raji/DC-SIGN cells (10^6 cells) was added, and the suspension further incubated at 37°C for 60 minutes. Subsequently, 39 ml medium was added and the cell suspension was centrifuged at 300 g for 10 minutes. The obtained pellet was washed again with 40 ml medium and after centrifugation, the cell pellet (containing DC-SIGN-bound virus) was analyzed for p24 antigen content by ELISA. […] In the above-described experiments, the mannose-binding entry inhibitor HHA was included as a reference compound.

[7] = test system: HIV-1 NL4.3 transmission from Raji/DC-SIGN cells to C8166 cells; assay: Transmission of DC-SIGN-captured pretreated virus to C8166 cells (procedure B); type: cell-based; conditions: Human immunodeficiency virus 1; Raji/DC-SIGN exposed to compound-pretreated (1 h) HIV, compound removed, cocultured with C8166
[8] = test system: HIV-2 ROD; assay: Anti-HIV activity in CEM cells (cytopathogenicity); type: cell-based; conditions: Human immunodeficiency virus 2, CCRF-CEM
[9] = test system: CMV; assay: Activity against replication of non-retroviruses; type: cell-based
[10] = test system: NL4.3/DS5000R; assay: GFP-assay in Jurkat A72 (LTR-GFP) cells; type: cell-based, HIV-1; conditions: Human immunodeficiency virus 1, Jurkat, 72 h, read-out: EC50 NL4.3/DS5000R
[11] = test system: NCp7(11-55); assay: Zinc ejection monitored by Trp37 intrinsic fluorescence; type: biochemical, HIV-1
Experimental: Ejection of 50% of the zinc is observed in less than 5 minutes (Figure 4C).
As a reference, NCp7(11-55) was treated with 1 mM EDTA, a well known zinc chelator (triangle). […] (B) Time-dependent zinc ejection from NCp7(11-55). […] The data points (stars) corresponded to the fluorescence intensity at the maximum emission wavelength from panel B. Solid line represents a double-exponential fit to the data. (D) Zinc ejection from NCp7(11-55) in the presence of an excess of zinc. Emission spectra of the NCp7(11-55) (1 μM) in the presence of an excess of 100 μM zinc (triangle). […] The emission spectrum of NCp7(11-55) incubated with 1 mM EDTA (triangle) for one hour is given as a reference.
The NC(11-55) peptide was synthesized by solid phase peptide synthesis on a 433A synthesizer (ABI, Foster City, CA), as previously described. The lyophilized peptide was dissolved in water, and its concentration was determined using an extinction coefficient of 5,700 M^–1 x cm^–1 at 280 nm. Next, 2.5 molar equivalents of ZnSO4 were added to the peptide and pH was raised to its final value, by adding buffer. The increase of pH was done only after zinc addition to avoid oxidization of the zinc-free peptide.
Absorption spectra were recorded on a Cary 400 spectrophotometer. Fluorescence spectra were recorded at 20°C on a Fluorolog spectrofluorometer (Horiba, Jobin-Yvon), equipped with a thermostated cell compartment. Excitation wavelength was 295 nm and 520 nm, for NC(11-55) and Rh6G-5^′-cTAR-3^′-Dabcyl, respectively. The spectra were corrected for dilution and buffer fluorescence. The protein spectra were additionally corrected for screening effects due to the zinc ejecting agent, using: […]

[12] = test system: SIV Mac251; assay: MT-4/MTT-assay, protection against virus-induced cytopathic effect; type: cell-based; conditions: MT-4 cells, MTT, 5 days after infection
[13] = test system: HIV-1 IIIB; assay: Virucidal assay: virus pre-incubated with compound, diluted, titrated on MT-4 cells; conditions: for CCID50/ml HIV-1 IIIB: no drug 1 × 10^6
[14] = test system: HIV-1 NL4.3 transmission from Raji/DC-SIGN cells to C8166 cells; assay: Transmission of DC-SIGN-captured virus to C8166 cells in presence of compound (procedure C); type: cell-based; conditions: Human immunodeficiency virus 1; HIV-captured Raji/DC-SIGN cocultivated with C8166 in presence of compound; giant cell formation
[15] = Cytostatic activity, CEM cell proliferation; type: cell-based, human; conditions: human, CEM T-lymphocyte cells
[16] = MTT-based viability assay in Jurkat cells; conditions: human
[17] = 10 μM compound, 1 μM NCp7(11-55)

Cn1sc(=N)nc1-c1ccccc1 [WDO-217, 2-methyl-3-phenyl-2H-[1,2,4]thiadiazol-5-ylideneamine]
EC50 [1]: 2.3 ± 0.3 µM | EC50 [2]: 1.04 ± 0.3 µM | EC50 [3]: 8.3 ± 1.8 µM | EC50 [4]: 1.7 ± 0.9 µM | CC50 at 5 days [5]: ~72 µM | IC50 HIV-capture procedure A [6]: not able to prevent binding | IC50 [7]: 2.2 ± 1 µM | EC50 [8]: 15 ± 6.7 µM | activity against replication of CMV [9]: inactive | EC50 [10]: 1.2 ± 0.1 µM | time to complete zinc ejection [11, 17]: 35 min | time to ejection of 50% of the zinc [11, 17]: less than 5 minutes | zinc ejection (decrease of Trp37 fluorescence, same as 1 mM EDTA) ([11]; 10-fold excess (10 μM), 1 h pre-incubation): efficiently ejects zinc | EC50 [12]: 5.3 ± 1.5 µM | EC50 ([12]; Simian immunodeficiency virus, MT4, 120 h): 5 ± 1 µM | CCID50/ml HIV-1 IIIB ([13]; virus incubated 1 h 37°C with 0.2 μM): 5.4 × 10^6 CCID50/ml | CCID50/ml HIV-1 IIIB ([13]; virus incubated 1 h 37°C with 1 μM): 1.6 × 10^6 CCID50/ml | CCID50/ml HIV-1 IIIB ([13]; virus incubated 1 h 37°C with 5 μM): 1 × 10^6 CCID50/ml | CCID50/ml HIV-1 IIIB ([13]; virus incubated 1 h 37°C with 25 μM): 0 CCID50/ml | CCID50/ml HIV-1 IIIB ([13]; virus incubated 1 h 37°C with 625 μM): 0 CCID50/ml | Infectivity of pre-incubated HIV-1 virus ([13]; virus incubated at 26, 130 and 650 μM, 1 h 37°C): no longer able to infect cells | IC50 [14]: 8.3 ± 0.4 µM | CC50 [15]: 94 ± 15 µM | CC50 [16]: 75 ± 11 µM

— publication PMC3542062, “A phenyl-thiadiazolylidene-amine derivative ejects zinc from retroviral nucleocapsid zinc fingers and inactivates HIV virions” (Retrovirology, 2012)
